These results are taken from US6313116A, “Benzothiazole compounds and their therapeutic use” (Darwin Discovery, Ltd., priority 2000, dated 2001).

The target of this assay is phosphodiesterase IV. As to the kind of experiment: phosphodiesterase IV inhibitory activity (standard assay procedures). The class given is biochemical. The following applies: assay not given. The source says: The assays used to confirm the phosphodiesterase IV inhibitory activity of compounds of formula (I) are standard assay procedures as disclosed by Schilling et al, Anal. Biochem. 216:154 (1994), Thompson and Strada, Adv. Cycl. Nucl. Res. 8:119 (1979) and Gristwood and Owen, Br. J. Pharmacol. 87:91P (1986).

In turn, `CCc1nc2c(OC)ccc(C(=O)Nc3ccnn3C)c2s1` [Example 5, 2-Ethyl-4-methoxybenzothiazole-7-carboxylic acid (2-methyl-2H-pyrazol-3-yl)amide] returned a half-inhibitory concentration (IC50) of 0.017 µM.

One may read the IC50 as the concentration that inhibits the measured activity by half. A higher IC50 goes with weaker potency.
